Results published in patent publication US4147861A, “1N-(α-Hydroxy-ω-aminoalkanoyl)- 6'N-methyl-3',4'-dideoxykanamycin B and the production thereof” (Zaidan Hojin Biseibutsu Kagaku Kenkyu Kai, priority 1977, dated 1979).
Values after ≈ are worked out from the molar mass of the structure shown. Like-named read-outs stand apart in the source and are kept apart here.

How the values were obtained:
Assay type in all cases: cell-based
Staphylococcus aureus = assay: Minimum inhibitory concentration, serial dilution method on nutrient agar; details: 37° C., 18 hours, read-out: Minimum Inhibitory Concentrations
[1] = test system: Staphylococcus aureus FDA 209P; assay: as above; details: FDA209P, 37° C., 18 hours, read-out: Minimum Inhibitory Concentrations
[2] = test system: Staphylococcus aureus Terajima; assay: as above; details: 37° C., 18 hours, read-out: Minimum Inhibitory Concentrations
Sarcina lutea PCI 1001 = assay: as above; details: Micrococcus luteus, read-out: Minimum Inhibitory Concentrations
Bacillus anthracis = assay: microbe, parasite or virus in culture; details: 18 h, read-out: Minimum Inhibitory Concentrations
[3] = test system: Bacillus subtilis PCI 219; assay: Minimum inhibitory concentration, serial dilution method on nutrient agar; details: PCI219, 37° C., 18 hours, read-out: Minimum Inhibitory Concentrations
[4] = test system: Bacillus subtilis NRRL B-558; assay: as above; details: NRRLB558, 37° C., 18 hours, read-out: Minimum Inhibitory Concentrations
[5] = test system: Bacillus cereus ATCC 10702; assay: as above; details: read-out: Minimum Inhibitory Concentrations
[6] = test system: Corynebacterium bovis 1810; assay: as above; details: Corynebacterium bovis 1810; 37° C., 18 hours; read-out: Minimum Inhibitory Concentrations
[7] = test system: Mycobacterium smegmatis ATCC 607; assay: as above; details: Mycolicibacterium smegmatis, ATCC607, 37° C., 18 hours, read-out: Minimum Inhibitory Concentrations
[8] = test system: Shigella dysenteriae JS 11910; assay: as above; details: JS11910, 18 h, read-out: Minimum Inhibitory Concentrations
Salmonella typhosa T-63 = assay: as above; details: Salmonella enterica, 18 h, read-out: Minimum Inhibitory Concentrations
[9] = test system: Salmonella enteritidis 1891; assay: as above; details: Salmonella enterica; Salmonella enteritidis 1891; 37° C., 18 hours; read-out: Minimum Inhibitory Concentrations
Proteus vulgaris OX 19 = assay: as above; details: OX19; Proteus vulgaris OX 19; 37° C., 18 hours; read-out: Minimum Inhibitory Concentrations
[10] = test system: Klebsiella pneumoniae PCT 602; assay: as above; details: PCT602; Klebsiella pneumoniae PCT 602; 37° C., 18 hours; read-out: Minimum Inhibitory Concentrations
Escherichia coli NIHJ = assay: as above; details: read-out: Minimum Inhibitory Concentrations
Escherichia coli K-12 = assay: as above; details: K12; Escherichia coli K-12; 37° C., 18 hours; read-out: Minimum Inhibitory Concentrations
Escherichia coli K-12 R5 = assay: as above; details: K12R5, 18 h, read-out: Minimum Inhibitory Concentrations
[11] = test system: Escherichia coli K-12 ML 1629; assay: as above; details: read-out: Minimum Inhibitory Concentrations
[12] = test system: Escherichia coli K-12 ML 1410; assay: as above; details: read-out: Minimum Inhibitory Concentrations
[13] = test system: Escherichia coli K-12 ML 1410 R81; assay: as above; details: 18 h, read-out: Minimum Inhibitory Concentrations
[14] = test system: Escherichia coli LA290 R55; assay: as above; details: LA290R55, 18 h, read-out: Minimum Inhibitory Concentrations
[15] = test system: Escherichia coli LA290 R56; assay: as above; details: LA290R56, 18 h, read-out: Minimum Inhibitory Concentrations
[16] = test system: Escherichia coli LA290 R64; assay: as above; details: LA290R64, 18 h, read-out: Minimum Inhibitory Concentrations
Escherichia coli W677 = assay: as above; details: Escherichia coli W677; 37° C., 18 hours; read-out: Minimum Inhibitory Concentrations
[17] = test system: Escherichia coli JR66/W677; assay: as above; details: read-out: Minimum Inhibitory Concentrations
[18] = test system: Escherichia coli K-12 ML 1630; assay: as above; details: K12ML1630, 37° C., 18 hours, read-out: Minimum Inhibitory Concentrations
Procedure: (§1) The minimum inhibitory concentrations (mcg./ml.) of 1N-(DL-isoseryl)-6'N-methyl-3',4'-dideoxykanamycin B (abbreviated as DL-IS-MDKB); 1N-(L-isoseryl)-6'N-methyl-3',4'-dideoxykanamycin B (abbreviated as L-IS-MDKB); 1N-(L-4-amino-[…])-6'N-methyl-3',4'-dideoxykanamycin B (abbreviated as AHB-MDKB); and 1N-(L-5-amino-2-hydroxyvaleryl)-6'N-methyl-3',4'-dideoxykanamycin B (abbreviated as AHV-MDBK) against various organisms were determined according to serial dilution method using nutrient agar medium at 37° C., the readings being made after 18 hours incubation. For the comparison purpose, the minimum inhibitory concentrations (mcg./ml.) of 1 N-(L-4-amino-2-hydroxybutyryl)-kanamycin A (abbreviated as AHB-KMA) and 1N-([…])-kanamycin B (abbreviated as AHB-KMB) which are known from U.S. Pat. No. 3,781,268 were also determined by the same manner as stated above.

[19] = test system: Klebsiella pneumoniae 22 No. 3038; assay: as above; details: 37° C., 18 hours, read-out: Minimum Inhibitory Concentrations
Procedure: as §1

[20] = test system: Pseudomonas aeruginosa A3; assay: as above; details: 37° C., 18 hours, read-out: Minimum Inhibitory Concentrations
Procedure: as §1

[21] = test system: Shigella flexneri 4b JS 11811; assay: as above; details: 4BJS11811, 37° C., 18 hours, read-out: Minimum Inhibitory Concentrations
Procedure: as §1

Shigella sonnei JS 11746 = assay: as above; details: JS11746, 37° C., 18 hours, read-out: Minimum Inhibitory Concentrations
Procedure: as §1

[22] = test system: Pseudomonas aeruginosa No. 12; assay: as above; details: Pseudomonas aeruginosa No. 12; 37° C., 18 hours; read-out: Minimum Inhibitory Concentrations
[23] = test system: Pseudomonas aeruginosa TI-13; assay: as above; details: read-out: Minimum Inhibitory Concentrations
[24] = test system: Pseudomonas aeruginosa GN315; assay: as above; details: Pseudomonas aeruginosa GN315; 37° C., 18 hours; read-out: Minimum Inhibitory Concentrations
[25] = test system: Pseudomonas aeruginosa 99; assay: as above; details: 37° C., 18 hours, read-out: Minimum Inhibitory Concentrations

| SMILES | MIC (Staphylococcus aureus) [µg/mL] | MIC [1] [µg/mL] | MIC [2] [µg/mL] | MIC (Bacillus anthracis) [µg/mL] | MIC [3] [µg/mL] | MIC [4] [µg/mL] | MIC [6] [µg/mL] | MIC [7] [µg/mL] | MIC [8] [µg/mL] | MIC (Salmonella typhosa T-63) [µg/mL] | MIC [9] [µg/mL] | MIC (Proteus vulgaris OX 19) [µg/mL] | MIC [10] [µg/mL] | MIC (Escherichia coli K-12) [µg/mL] | MIC (Escherichia coli K-12 R5) [µg/mL] | MIC [13] [µg/mL] | MIC [14] [µg/mL] | MIC [15] [µg/mL] | MIC [16] [µg/mL] | MIC (Escherichia coli W677) [µg/mL] | further results |
| --- | --- | --- | --- | --- | --- | --- | --- | --- | --- | --- | --- | --- | --- | --- | --- | --- | --- | --- | --- | --- | --- |
| CNC[C@@H]1CC[C@@H](N)[C@@H](O[C@H]2[C@H](O)[C@@H](O[C@H]3O[C@H](CO)[C@@H](O)[C@H](N)[C@H]3O)[C@H](NC(=O)[C@@H](O)CCCN)C[C@@H]2N)O1 [AHV-MDKB, 1N-(L-5-amino-2-hydroxyvaleryl)-6'N-methyl-3',4'-dideoxykanamycin B] | < 0.2 | 0.39 (≈ 0.672 µM) | < 0.2 | < 0.2 | < 0.2 | < 0.2 | 6.25 (≈ 10.8 µM) | 0.78 (≈ 1.34 µM) | 3.13 (≈ 5.39 µM) | 0.78 (≈ 1.34 µM) | 0.78 (≈ 1.34 µM) | 0.78 (≈ 1.34 µM) | 0.78 (≈ 1.34 µM) | 0.78 (≈ 1.34 µM) | 1.56 (≈ 2.69 µM) | 1.56 (≈ 2.69 µM) | 0.78 (≈ 1.34 µM) | 0.39 (≈ 0.672 µM) | 0.39 (≈ 0.672 µM) | 0.78 (≈ 1.34 µM) | MIC (Sarcina lutea PCI 1001; PCI1001, Sarcina lutea PCI 1001, 37° C., 18 hours): 12.5 µg/mL (≈ 21.5 µM); MIC ([5]; ATCC10702, Bacillus cereus ATCC 10702, 37° C., 18 hours): 1.56 µg/mL (≈ 2.69 µM); MIC (Escherichia coli NIHJ; Escherichia coli NIHJ, 37° C., 18 hours): 0.78 µg/mL (≈ 1.34 µM); MIC ([11]; K12ML1629, Escherichia coli K-12 ML 1629, 37° C., 18 hours): 0.78 µg/mL (≈ 1.34 µM); MIC ([12]; K12ML1410, Escherichia coli K-12 ML 1410, 37° C., 18 hours): 1.56 µg/mL (≈ 2.69 µM); MIC ([17]; Escherichia coli JR66/W677, 37° C., 18 hours): 1.56 µg/mL (≈ 2.69 µM); MIC [18]: 1.56 µg/mL (≈ 2.69 µM); MIC [19]: 3.13 µg/mL (≈ 5.39 µM); MIC [20]: 3.13 µg/mL (≈ 5.39 µM); MIC [21]: 3.13 µg/mL (≈ 5.39 µM); MIC (Shigella sonnei JS 11746): 3.13 µg/mL (≈ 5.39 µM); MIC [22]: 25 µg/mL (≈ 43.1 µM); MIC ([23]; TI13, Pseudomonas aeruginosa TI-13, 37° C., 18 hours): 6.25 µg/mL (≈ 10.8 µM); MIC [24]: 12.5 µg/mL (≈ 21.5 µM); MIC [25]: 25 µg/mL (≈ 43.1 µM) |
| CNC[C@@H]1CC[C@@H](N)[C@@H](O[C@H]2[C@H](O)[C@@H](O[C@H]3O[C@H](CO)[C@@H](O)[C@H](N)[C@H]3O)[C@H](NC(=O)[C@@H](O)CN)C[C@@H]2N)O1 [L-IS-MDKB, 1N-(L-isoseryl)-6'N-methyl-3',4'-dideoxykanamycin B] | < 0.2 | < 0.2 | < 0.2 | < 0.2 | < 0.2 | < 0.2 | 0.78 (≈ 1.41 µM) | 0.39 (≈ 0.706 µM) | 3.13 (≈ 5.66 µM) | 0.39 (≈ 0.706 µM) | 0.78 (≈ 1.41 µM) | 0.78 (≈ 1.41 µM) | 0.78 (≈ 1.41 µM) | 0.78 (≈ 1.41 µM) | 1.56 (≈ 2.82 µM) | 1.56 (≈ 2.82 µM) | 1.56 (≈ 2.82 µM) | 0.78 (≈ 1.41 µM) | 0.39 (≈ 0.706 µM) | 0.78 (≈ 1.41 µM) | MIC (Sarcina lutea PCI 1001; PCI1001, 18 h): 3.13 µg/mL (≈ 5.66 µM); MIC ([5]; Bacillus cereus, ATCC10702, 18 h): 1.56 µg/mL (≈ 2.82 µM); MIC (Escherichia coli NIHJ; Escherichia coli, 18 h): 1.56 µg/mL (≈ 2.82 µM); MIC ([11]; Escherichia coli, K12ML1629, 18 h): 1.56 µg/mL (≈ 2.82 µM); MIC ([12]; Escherichia coli, K12ML1410, 18 h): 1.56 µg/mL (≈ 2.82 µM); MIC ([17]; Escherichia coli, JR66/W677, 18 h): 1.56 µg/mL (≈ 2.82 µM); MIC [18]: 1.56 µg/mL (≈ 2.82 µM); MIC [19]: 1.56 µg/mL (≈ 2.82 µM); MIC [20]: 3.13 µg/mL (≈ 5.66 µM); MIC [21]: 1.56 µg/mL (≈ 2.82 µM); MIC (Shigella sonnei JS 11746): 3.13 µg/mL (≈ 5.66 µM); MIC [22]: 25 µg/mL (≈ 45.2 µM); MIC ([23]; Pseudomonas aeruginosa, TI13, 18 h): 6.25 µg/mL (≈ 11.3 µM); MIC [24]: 25 µg/mL (≈ 45.2 µM); MIC [25]: 25 µg/mL (≈ 45.2 µM) |
